Assay results from patent publication US20260042764A1, “COMPOSITIONS AND METHODS FOR INHIBITION OF KRAS” (TheRas, Inc., priority 2022, published 2026).

Molecular target: T1, Avi-KRAS G12D (2-169) GTP/RAF1 RBD-3xFLAG (51-131) (Homo sapiens, UniProt P01116, G12D)
T1 construct: Avi-KRAS G12D (2-169)
Experiment: Raf1-KRAS G12D-GTP disruption HTRF assay (Biological Example 3)
Type: binding
Settings: KRAS G12D, GTP-loaded
Summary of the method: (§1)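 50 nM Avi-KRAS (2-169) GTP/RAF1 RBD complex; 75 nM RBD-Avi; pH 7.5 Tris buffer, 10% DMSO; cpd 30 μM top, 3x, 10 pts; 1 h RT, 700 rpm; HTRF, % of DMSO.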

T1 sequence (P01116 2-169 isoform P01116-2 G12D): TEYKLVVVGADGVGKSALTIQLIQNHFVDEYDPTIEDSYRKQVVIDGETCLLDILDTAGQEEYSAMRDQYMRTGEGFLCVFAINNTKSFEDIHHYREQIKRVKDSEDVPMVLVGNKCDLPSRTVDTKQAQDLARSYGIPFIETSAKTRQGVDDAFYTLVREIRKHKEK

SMILES	IC50 [nM]
CCN(c1nc(OC[C@@]23CCCN2C[C@H](F)C3)nc2c(F)c(-c3ccc(F)c4sc(N)c(C#N)c34)c(C(F)(F)F)cc12)[C@H]1C[C@H](C)N(C(=O)C2CC(OC)C2)C1 (stereo partly drawn) [Compound 928]	100 to 1000
CCN(c1nc(OCC23CCCN2CC(F)C3)nc2c(F)c(-c3ccc(F)c4sc(N)c(C#N)c34)c(C(F)(F)F)cc12)C1CCN(C(=O)c2ccc(Cl)s2)C1 (stereo not drawn) [Compound 929]	100 to 1000
CCN(c1nc(OCC23CCCN2CC(F)C3)nc2c(F)c(-c3ccc(F)c4sc(N)c(C#N)c34)c(C(F)(F)F)cc12)C1CCN(C(=O)c2nc(C)ns2)C1 (stereo not drawn) [Compound 932]	100 to 1000
CCN(c1nc(OCC23CCCN2CC(F)C3)nc2c(F)c(-c3ccc(F)c4sc(N)c(C#N)c34)c(C(F)(F)F)cc12)C(C)c1cccnc1 (stereo not drawn) [Compound 933]	1000 to 10000
N#Cc1c(N)sc2c(F)ccc(-c3c(C(F)(F)F)cc4c(N5CCc6ccncc6C5)nc(OC[C@@]56CCCN5C[C@H](F)C6)nc4c3F)c12 [Compound 942]	> 10000
N#Cc1c(N)sc2c(F)ccc(-c3c(C(F)(F)F)cc4c(N5CCC(c6cccnc6)C5)nc(OC[C@@]56CCCN5C[C@H](F)C6)nc4c3F)c12 (stereo partly drawn) [Compound 943]	> 10000

Molecular target: T2, Avi-KRAS G12C (2-169) GTP/RAF1 RBD-3xFLAG (51-131) (Homo sapiens, UniProt P01116, G12C)
T2 construct: Avi-KRAS G12C (2-169)
Experiment: Raf1-KRAS G12C-GTP disruption HTRF assay (Biological Example 3)
Type: binding
Settings: KRAS G12C, GTP-loaded
Summary of the method: as §1

T2 sequence (P01116 2-169 isoform P01116-2 G12C): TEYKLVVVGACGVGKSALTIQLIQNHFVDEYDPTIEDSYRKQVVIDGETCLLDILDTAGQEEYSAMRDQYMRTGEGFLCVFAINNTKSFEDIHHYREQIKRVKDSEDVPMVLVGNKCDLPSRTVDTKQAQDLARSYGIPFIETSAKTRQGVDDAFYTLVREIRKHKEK

SMILES	IC50 [nM]
CCN(c1nc(OC[C@@]23CCCN2C[C@H](F)C3)nc2c(F)c(-c3ccc(F)c4sc(N)c(C#N)c34)c(C(F)(F)F)cc12)[C@H]1C[C@H](C)N(C(=O)C2CC(OC)C2)C1 (stereo partly drawn) [Compound 928]	100 to 1000
CCN(c1nc(OCC23CCCN2CC(F)C3)nc2c(F)c(-c3ccc(F)c4sc(N)c(C#N)c34)c(C(F)(F)F)cc12)C1CCN(C(=O)c2ccc(Cl)s2)C1 (stereo not drawn) [Compound 929]	100 to 1000
CCN(c1nc(OCC23CCCN2CC(F)C3)nc2c(F)c(-c3ccc(F)c4sc(N)c(C#N)c34)c(C(F)(F)F)cc12)C1CCN(C(=O)c2nc(C)ns2)C1 (stereo not drawn) [Compound 932]	100 to 1000
CCN(c1nc(OCC23CCCN2CC(F)C3)nc2c(F)c(-c3ccc(F)c4sc(N)c(C#N)c34)c(C(F)(F)F)cc12)C(C)c1cccnc1 (stereo not drawn) [Compound 933]	> 10000
N#Cc1c(N)sc2c(F)ccc(-c3c(C(F)(F)F)cc4c(N5CCc6ccncc6C5)nc(OC[C@@]56CCCN5C[C@H](F)C6)nc4c3F)c12 [Compound 942]	> 10000
N#Cc1c(N)sc2c(F)ccc(-c3c(C(F)(F)F)cc4c(N5CCC(c6cccnc6)C5)nc(OC[C@@]56CCCN5C[C@H](F)C6)nc4c3F)c12 (stereo partly drawn) [Compound 943]	> 10000

Molecular target: T3, Avi-KRAS WT (2-169) GTP/RAF1 RBD-3xFLAG (51-131) (Homo sapiens, UniProt P01116)
T3 construct: Avi-KRAS WT (2-169)
Experiment: Raf1-KRAS WT-GTP disruption HTRF assay (Biological Example 3)
Type: binding
Settings: KRAS WT, GTP-loaded
Summary of the method: as §1

T3 sequence (P01116 2-169 isoform P01116-2): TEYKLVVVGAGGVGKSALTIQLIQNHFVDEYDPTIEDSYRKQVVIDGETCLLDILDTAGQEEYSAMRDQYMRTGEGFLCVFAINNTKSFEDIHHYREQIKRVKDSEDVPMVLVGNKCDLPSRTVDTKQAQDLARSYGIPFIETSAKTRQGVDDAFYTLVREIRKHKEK

SMILES	IC50 [nM]
CCN(c1nc(OC[C@@]23CCCN2C[C@H](F)C3)nc2c(F)c(-c3ccc(F)c4sc(N)c(C#N)c34)c(C(F)(F)F)cc12)[C@H]1C[C@H](C)N(C(=O)C2CC(OC)C2)C1 (stereo partly drawn) [Compound 928]	100 to 1000
CCN(c1nc(OCC23CCCN2CC(F)C3)nc2c(F)c(-c3ccc(F)c4sc(N)c(C#N)c34)c(C(F)(F)F)cc12)C1CCN(C(=O)c2ccc(Cl)s2)C1 (stereo not drawn) [Compound 929]	100 to 1000
CCN(c1nc(OCC23CCCN2CC(F)C3)nc2c(F)c(-c3ccc(F)c4sc(N)c(C#N)c34)c(C(F)(F)F)cc12)C1CCN(C(=O)c2nc(C)ns2)C1 (stereo not drawn) [Compound 932]	1000 to 10000
CCN(c1nc(OCC23CCCN2CC(F)C3)nc2c(F)c(-c3ccc(F)c4sc(N)c(C#N)c34)c(C(F)(F)F)cc12)C(C)c1cccnc1 (stereo not drawn) [Compound 933]	> 10000
N#Cc1c(N)sc2c(F)ccc(-c3c(C(F)(F)F)cc4c(N5CCc6ccncc6C5)nc(OC[C@@]56CCCN5C[C@H](F)C6)nc4c3F)c12 [Compound 942]	> 10000
N#Cc1c(N)sc2c(F)ccc(-c3c(C(F)(F)F)cc4c(N5CCC(c6cccnc6)C5)nc(OC[C@@]56CCCN5C[C@H](F)C6)nc4c3F)c12 (stereo partly drawn) [Compound 943]	> 10000

Molecular target: T4, Avi-KRAS G12V (2-169) GTP/RAF1 RBD-3xFLAG (51-131) (Homo sapiens, UniProt P01116, G12V)
T4 construct: Avi-KRAS G12V (2-169)
Experiment: Raf1-KRAS G12V-GTP disruption HTRF assay (Biological Example 3)
Type: binding
Settings: KRAS G12V, GTP-loaded
Summary of the method: as §1

T4 sequence (P01116 2-169 isoform P01116-2 G12V): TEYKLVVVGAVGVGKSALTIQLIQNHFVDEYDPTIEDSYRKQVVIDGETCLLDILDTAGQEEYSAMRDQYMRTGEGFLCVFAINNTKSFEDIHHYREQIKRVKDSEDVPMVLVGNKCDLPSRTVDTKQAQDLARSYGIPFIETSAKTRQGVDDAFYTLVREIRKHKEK

SMILES	IC50 [nM]
CCN(c1nc(OC[C@@]23CCCN2C[C@H](F)C3)nc2c(F)c(-c3ccc(F)c4sc(N)c(C#N)c34)c(C(F)(F)F)cc12)[C@H]1C[C@H](C)N(C(=O)C2CC(OC)C2)C1 (stereo partly drawn) [Compound 928]	100 to 1000
CCN(c1nc(OCC23CCCN2CC(F)C3)nc2c(F)c(-c3ccc(F)c4sc(N)c(C#N)c34)c(C(F)(F)F)cc12)C1CCN(C(=O)c2ccc(Cl)s2)C1 (stereo not drawn) [Compound 929]	100 to 1000
CCN(c1nc(OCC23CCCN2CC(F)C3)nc2c(F)c(-c3ccc(F)c4sc(N)c(C#N)c34)c(C(F)(F)F)cc12)C1CCN(C(=O)c2nc(C)ns2)C1 (stereo not drawn) [Compound 932]	1000 to 10000
CCN(c1nc(OCC23CCCN2CC(F)C3)nc2c(F)c(-c3ccc(F)c4sc(N)c(C#N)c34)c(C(F)(F)F)cc12)C(C)c1cccnc1 (stereo not drawn) [Compound 933]	> 10000
N#Cc1c(N)sc2c(F)ccc(-c3c(C(F)(F)F)cc4c(N5CCc6ccncc6C5)nc(OC[C@@]56CCCN5C[C@H](F)C6)nc4c3F)c12 [Compound 942]	> 10000
N#Cc1c(N)sc2c(F)ccc(-c3c(C(F)(F)F)cc4c(N5CCC(c6cccnc6)C5)nc(OC[C@@]56CCCN5C[C@H](F)C6)nc4c3F)c12 (stereo partly drawn) [Compound 943]	> 10000

System: GP2d cells (KRAS G12D)
Experiment: Cell-based pERK HTRF assay in GP2d cell (Biological Example 2)
Settings: GP2d (KRAS G12D) cells
Summary of the method: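 Treatment with test compounds lasted one hour in DMEM containing 10% FBS, with DMSO held at 0.25%. Dilution series: 9 points, half-log spacing, highest 1 μM or 100 nM. Lysates were incubated 4–24 h at room temperature with antibody mix, then HTRF was read at 320 nm excitation.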

SMILES	IC50 [nM]
CCN(c1nc(OCC23CCCN2CC(F)C3)nc2c(F)c(-c3ccc(F)c4sc(N)c(C#N)c34)c(C(F)(F)F)cc12)C1CCN(C(=O)c2ccc(Cl)s2)C1 (stereo not drawn) [Compound 929]	< 100

Same assay, conditions: GP2d, GP2d (KRAS G12D) cells

SMILES	IC50 [nM]
CCN(c1nc(OC[C@@]23CCCN2C[C@H](F)C3)nc2c(F)c(-c3ccc(F)c4sc(N)c(C#N)c34)c(C(F)(F)F)cc12)[C@H]1C[C@H](C)N(C(=O)C2CC(OC)C2)C1 (stereo partly drawn) [Compound 928]	< 100
CCN(c1nc(OCC23CCCN2CC(F)C3)nc2c(F)c(-c3ccc(F)c4sc(N)c(C#N)c34)c(C(F)(F)F)cc12)C1CCN(C(=O)c2nc(C)ns2)C1 (stereo not drawn) [Compound 932]	< 100
CCN(c1nc(OCC23CCCN2CC(F)C3)nc2c(F)c(-c3ccc(F)c4sc(N)c(C#N)c34)c(C(F)(F)F)cc12)C(C)c1cccnc1 (stereo not drawn) [Compound 933]	< 100
N#Cc1c(N)sc2c(F)ccc(-c3c(C(F)(F)F)cc4c(N5CCc6ccncc6C5)nc(OC[C@@]56CCCN5C[C@H](F)C6)nc4c3F)c12 [Compound 942]	< 100
N#Cc1c(N)sc2c(F)ccc(-c3c(C(F)(F)F)cc4c(N5CCC(c6cccnc6)C5)nc(OC[C@@]56CCCN5C[C@H](F)C6)nc4c3F)c12 (stereo partly drawn) [Compound 943]	< 100

System: SW620 cells (KRAS G12V)
Experiment: Cell-based pERK HTRF assay in SW620 cell (Biological Example 4)
Settings: Homo sapiens, SW-620, SW620 (KRAS G12V) cells
Summary of the method: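 SW620 cells were treated for 4 h with compound in a 9-point half-log series from 1 μM top (0.25% DMSO), then lysed. Phospho-ERK was detected by HTRF with d2 and Eu cryptate antibodies after 4–24 h at room temperature, read at 615 nm emission.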

SMILES	IC50 [nM]
CCN(c1nc(OC[C@@]23CCCN2C[C@H](F)C3)nc2c(F)c(-c3ccc(F)c4sc(N)c(C#N)c34)c(C(F)(F)F)cc12)[C@H]1C[C@H](C)N(C(=O)C2CC(OC)C2)C1 (stereo partly drawn) [Compound 928]	< 100
CCN(c1nc(OCC23CCCN2CC(F)C3)nc2c(F)c(-c3ccc(F)c4sc(N)c(C#N)c34)c(C(F)(F)F)cc12)C1CCN(C(=O)c2nc(C)ns2)C1 (stereo not drawn) [Compound 932]	< 100
CCN(c1nc(OCC23CCCN2CC(F)C3)nc2c(F)c(-c3ccc(F)c4sc(N)c(C#N)c34)c(C(F)(F)F)cc12)C(C)c1cccnc1 (stereo not drawn) [Compound 933]	< 100
N#Cc1c(N)sc2c(F)ccc(-c3c(C(F)(F)F)cc4c(N5CCc6ccncc6C5)nc(OC[C@@]56CCCN5C[C@H](F)C6)nc4c3F)c12 [Compound 942]	100 to 1000
N#Cc1c(N)sc2c(F)ccc(-c3c(C(F)(F)F)cc4c(N5CCC(c6cccnc6)C5)nc(OC[C@@]56CCCN5C[C@H](F)C6)nc4c3F)c12 (stereo partly drawn) [Compound 943]	< 100

Same assay, conditions: SW620 (KRAS G12V) cells

SMILES	IC50 [nM]
CCN(c1nc(OCC23CCCN2CC(F)C3)nc2c(F)c(-c3ccc(F)c4sc(N)c(C#N)c34)c(C(F)(F)F)cc12)C1CCN(C(=O)c2ccc(Cl)s2)C1 (stereo not drawn) [Compound 929]	< 100
